Legend:
[1] = Liquid; for mass density: 101.33 kPa
[2] = refractive index (Na D-line) (dimensionless); settings: 298.15 K; 101.33 kPa; Liquid; Standard Abbe refractometry

CC(=O)OCC(C)C [2-methylpropyl ethanoate]
[1]
Settings	mass density [kg/m3]	vapor or sublimation pressure [kPa]
293.15 K	866.12	–
389.9 K	–	101.3

Settings	refractive index
[2]	1.3876

CCCCCCO [hexan-1-ol]
[1]
Settings	mass density [kg/m3]	vapor or sublimation pressure [kPa]
298.15 K	814.85	–
356.39 K	–	5
364.42 K	–	7.5
368.04 K	–	8.9
372.23 K	–	10.9
376.68 K	–	13.4
379.61 K	–	15.3
384.92 K	–	19.3
384.93 K	–	19.3
390.31 K	–	24.2
394.34 K	–	28.5
398.14 K	–	33.1
401.57 K	–	37.8
404.56 K	–	42.3
407.43 K	–	47.1
410.27 K	–	52.2
412.75 K	–	57
414.93 K	–	61.5
417.18 K	–	66.4
417.28 K	–	66.7
419.52 K	–	71.9
421.96 K	–	78
424.54 K	–	84.8
426.31 K	–	89.8
428.2 K	–	95.3
429.97 K	–	100.8
430 K	–	101.5
430.06 K	–	101.3
430.26 K	–	101.7

Settings	refractive index
[2]	1.4162

CC(C)CO [2-methyl-1-propanol]
[1]
Settings	mass density [kg/m3]	vapor or sublimation pressure [kPa]
298.15 K	797.83	–
381.09 K	–	101.3

Settings	refractive index
[2]	1.3937

Reference: the NIST ThermoML archive (doi:10.1016/j.fluid.2005.06.019)
